From patent US6362212B1, “Oxime derivative and bactericide containing the same as active ingredient” (Shionogi & Company, Ltd., priority 1994, dated 2002)

Legend:
Type in all cases: in vivo
[1] = system: Pseudoperonospora cubensis; assay: Controlling effect on Pseudoperonospora cubensis by foliage application (pot experiment); details: foliage spray on cucumber (var. TSUKUBASHIROIBO) first leaves, lesion area after 10 days in moist chamber at 20° C.
How it was run: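 Cucumber plants grown 2–3 weeks were sprayed on first leaves with compound (DMF solution diluted in water with spreader); 24 h later, Pseudoperonospora cubensis zoosporangia suspension dropped on leaves. Plants held in moist chamber at 20° C for 10 days; lesion area observed and percent control calculated.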

[2] = system: Pyricularia oryzae; details: foliage spray on rice seedlings (cv. […]), number of lesions six days after the inoculation
[3] = system: Botrytis cinerea; assay: Controlling effect on Botrytis cinerea by foliage application (pot experiment); details: foliage spray on cucumber (cv. TSUKUBASHIROIBO) first leaves, mycelial disks, lesion diameter after 3 days in moist chamber at 20° C.
Protocol: The following Test Examples illustrate the effects of the fungicide of the present invention. (I. Controlling effects on various plant diseases by foliage application (pot experiment)) A test compound was dissolved in a small amount of N,N-dimethylformamide, and the solution was diluted to a given concentration with distilled water containing a spreader. Thus, a liquid sample to be tested was prepared. The liquid sample was sprayed to test plants, and 24 hours thereafter, pathogens were inoculated by the method described below. […] The seeds of cucumber ([…]) were sown in plastic cups (each 9 cm in diameter), followed by cultivation for 2 to 3 weeks. The test compound in the form of a solution or suspension was sprayed to the surface of their first leaves, and mycelial disks (4 mm φ) of Botrytis cinerea cultured on the potato sucrose agar medium were put on the leaf surfaces to inoculate. the cucumber seedlings with the pathogen. The plants were kept in a moist chamber at 20° C. for 3 days. The diameter of the lesions on the leaves was measured and the percent control was calculated.

[4] = system: Sphaerotheca fuliginea; assay: Controlling effect on Sphaerotheca fuliginea by foliage application (pot experiment); details: foliage spray on cucumber (cv. TSUKUBASHIROIBO) first leaves, infected area after 10 days in greenhouse at 20° C.
How it was run: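 First leaves of cucumber seedlings, 2-3 weeks old, were sprayed with compound (DMF solution diluted in water with spreader). They were inoculated 24 h later with a Sphaerotheca fuliginea conidia spray and kept 10 days at 20° C in a greenhouse. Percent control was calculated from infected leaf area.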

[5] = system: Erysiphe graminis f. sp. tritici; assay: Controlling effect on Erysiphe graminis f. sp. tritici by foliage application (pot experiment); details: foliage spray on wheat (cv. NORIN No. 61) seedlings, infected area after 10 days in greenhouse at 20° C.
How it was run: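 Wheat seedlings (cv. NORIN No. 61, 2-3 weeks old) sprayed with compound in DMF diluted in water with spreader, then inoculated with conidia 24 hours later. Kept in greenhouse at 20 °C for 10 days; percent control calculated from infected leaf area.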

[6] = system: Puccinia coronata; assay: Controlling effect on Puccinia coronata by foliage application (pot experiment); details: foliage spray on oat (cv. PC-38) seedlings, infected area after 1 day moist chamber and 8 days greenhouse at 20° C.
Protocol: The following Test Examples illustrate the effects of the fungicide of the present invention. (I. Controlling effects on various plant diseases by foliage application (pot experiment)) A test compound was dissolved in a small amount of N,N-dimethylformamide, and the solution was diluted to a given concentration with distilled water containing a spreader. Thus, a liquid sample to be tested was prepared. The liquid sample was sprayed to test plants, and 24 hours thereafter, pathogens were inoculated by the method described below. […] The seeds of oat (cv.: PC-38) were sown in plastic cups (each 9 cm in diameter), followed by cultivation for 2 to 3 weeks. The test compound in the form of a solution or suspension was sprayed to the seedlings. Spores of Puccinia coronata cultured on oat leaves were collected, diluted about 10-fold with talc, and sprayed to the test plants to inoculate the plants with the pathogen. After the inoculation, the plants were kept in a moist chamber at 20° C. for 1 day and then in a greenhouse at 20° C. for 8 days. The infected area on the leaf was observed, and the percent control was calculated.

Row | SMILES | Controlling effect on Pseudoperonospora cubensis by foliage application at 500 ppm (percent control) [1] [percent control] | Controlling effect on PYricularia orYzae by foliage application at 500 ppm (percent control) [2] [percent control] | Controlling effect on Botrytis cinerea by foliage application at 500 ppm (percent control) [3] [percent control] | Controlling effect on Sphaerotheca fuliginea by foliage application at 500 ppm (percent control) [4] [percent control] | Controlling effect on ErYsiphe graminis f. sp. tritici by foliage application at 500 ppm (percent control) [5] [percent control] | Controllng effect on Puccinia coronata by foliage application at 500 ppm (percent control) [6] [percent control]
1 | CON=C(c1ccccc1COc1ccc(Cl)cc1C)c1nccn1C (single isomer, unassigned) [141A] | 100 | 70 | 90 | 100 | 90 | 
2 | CON=C(c1ccccc1COc1ccccc1C)c1nccn1C (single isomer, unassigned) [112A] | 97 | 97 |  | 100 | 100 | 100
3 | CON=C(c1ncon1)c1ccccc1COc1ccccc1 [compound 801] | 100 | 70 |  | 100 | 90 | 97
4 | CON=C(c1cc(C)no1)c1ccccc1COc1ccc(Cl)cc1 (single isomer, unassigned) [607A] | 97 | 90 | 70 | 90 | 90 | 
5 | CON=C(c1ccccc1COc1ccc(Cl)cc1Cl)c1nccn1C (single isomer, unassigned) [130A] | 100 |  | 70 | 100 |  | 
6 | CON=C(c1cc(C)no1)c1ccccc1COc1ccccc1C (single isomer, unassigned) [612A] | 100 | 90 |  | 97 | 100 | 97
7 | CON=C(c1nnco1)c1ccccc1COc1cccc(C)c1 [compound 713] | 100 | 97 | 70 | 100 | 90 | 
8 | CON=C(c1ccno1)c1ccccc1COc1cc(C)ccc1C (single isomer, unassigned) [536B] | 100 | 70 |  | 90 | 100 | 97
9 | CON=C(c1ccccc1COc1ccc(-c2ccccc2)cc1)c1nccn1C (single isomer, unassigned) [144A] | 100 |  | 70 | 100 |  | 
